Laboratory results: ChEMBL document CHEMBL4507283, “Data for DCP probe BI-1935” (2021)

Assays:
[1] = target: Serine/threonine-protein kinase PAK 5 (Homo sapiens) (UniProt Q9P286); details: Compound concentration 1000.0 nM
[2] = target: Mitogen-activated protein kinase kinase kinase 9 (Homo sapiens) (UniProt P80192); details: Compound concentration 1000.0 nM
[3] = target: Tyrosine-protein kinase FRK (Homo sapiens) (UniProt P42685); details: Compound concentration 1000.0 nM
[4] = target: Cyclin-dependent kinase 8 (Homo sapiens) (UniProt P49336); details: Compound concentration 1000.0 nM
[5] = target: Serine/threonine-protein kinase PRP4 homolog (Homo sapiens) (UniProt Q13523); details: Compound concentration 1000.0 nM
[6] = target: RAC-beta serine/threonine-protein kinase (Homo sapiens) (UniProt P31751); details: Compound concentration 1000.0 nM
[7] = tested on: Receptor-type tyrosine-protein kinase FLT3 (Homo sapiens), P36888 [UNDEFINED MUTATION]; details: Compound concentration 1000.0 nM
[8] = target: Serine/threonine-protein kinase 24 (Homo sapiens) (UniProt Q9Y6E0); details: Compound concentration 1000.0 nM
[9] = tested on: Tyrosine-protein kinase ABL1 (Homo sapiens), P00519 [F317L]; details: Compound concentration 1000.0 nM
[10] = target: Myosin light chain kinase 2, skeletal/cardiac muscle (Homo sapiens) (UniProt Q9H1R3); details: Compound concentration 1000.0 nM
[11] = target: Casein kinase I isoform alpha-like (Homo sapiens) (UniProt Q8N752); details: Compound concentration 1000.0 nM
[12] = target: 1-phosphatidylinositol 3-phosphate 5-kinase (Homo sapiens) (UniProt Q9Y2I7); details: Compound concentration 1000.0 nM
[13] = target: D(1A) dopamine receptor (Homo sapiens) (UniProt P21728); details: Compound concentration 10.0 uM
[14] = target: Cyclin-dependent kinase 7 (Homo sapiens) (UniProt P50613); details: Compound concentration 1000.0 nM
[15] = target: Mitotic checkpoint serine/threonine-protein kinase BUB1 (Homo sapiens) (UniProt O43683); details: Compound concentration 1000.0 nM
[16] = target: Myosin light chain kinase family member 4 (Homo sapiens) (UniProt Q86YV6); details: Compound concentration 1000.0 nM
[17] = target: Receptor tyrosine-protein kinase erbB-4 (Homo sapiens) (UniProt Q15303); details: Compound concentration 1000.0 nM
[18] = target: Serine/threonine-protein kinase N1 (Homo sapiens) (UniProt Q16512); details: Compound concentration 1000.0 nM
[19] = tested on: Tyrosine-protein kinase ABL1 (Homo sapiens), P00519 [H396P]; details: Compound concentration 1000.0 nM
[20] = target: Sodium-dependent noradrenaline transporter (Homo sapiens) (UniProt P23975); assay: NETRANS/H Eurofins-Panlabs selectivity data (BI); details: Compound concentration 10.0 uM
[21] = target: Serine/threonine-protein kinase WNK2 (Homo sapiens) (UniProt Q9Y3S1); details: Compound concentration 1000.0 nM
[22] = target: Serine/threonine-protein kinase TAO3 (Homo sapiens) (UniProt Q9H2K8); details: Compound concentration 1000.0 nM
[23] = target: Sodium-dependent serotonin transporter (Homo sapiens) (UniProt P31645); details: Compound concentration 10.0 uM
[24] = tested on: Phosphatidylinositol 4,5-bisphosphate 3-kinase catalytic subunit alpha isoform (Homo sapiens), P42336 [M1043I]; details: Compound concentration 1000.0 nM
[25] = target: Mitogen-activated protein kinase kinase kinase 13 (Homo sapiens) (UniProt O43283); details: Compound concentration 1000.0 nM
[26] = target: Maternal embryonic leucine zipper kinase (Homo sapiens) (UniProt Q14680); details: Compound concentration 1000.0 nM
[27] = tested on: Phosphatidylinositol 4,5-bisphosphate 3-kinase catalytic subunit alpha isoform (Homo sapiens), P42336 [I800L]; details: Compound concentration 1000.0 nM
[28] = target: Phosphatidylinositol 4-kinase beta (Homo sapiens) (UniProt Q9UBF8); details: Compound concentration 1000.0 nM
[29] = target: Serine/threonine-protein kinase WNK3 (Homo sapiens) (UniProt Q9BYP7); details: Compound concentration 1000.0 nM
[30] = tested on: Epidermal growth factor receptor (Homo sapiens), P00533 [UNDEFINED MUTATION]; details: Compound concentration 1000.0 nM
[31] = target: Vascular endothelial growth factor receptor 3 (Homo sapiens) (UniProt P35916); details: Compound concentration 1000.0 nM
[32] = target: Amine oxidase [flavin-containing] A (MAO-A) (Homo sapiens, UniProt P21397); assay: MAOA Eurofins-Panlabs selectivity data (BI); design: mode of action inhibitor; details: compound concentration 10 uM, read-out: % Ctrl
[33] = target: Beta-2 adrenergic receptor (Rattus norvegicus) (UniProt P10608); assay: BETA/R Eurofins-Panlabs selectivity data (BI); details: Compound concentration 10.0 uM
[34] = target: Leucine-rich repeat serine/threonine-protein kinase 2 (Homo sapiens) (UniProt Q5S007); details: Compound concentration 1000.0 nM
[35] = target: Phosphatidylinositol 4-phosphate 3-kinase C2 domain-containing subunit beta (Homo sapiens) (UniProt O00750); details: Compound concentration 1000.0 nM
[36] = target: Ephrin type-A receptor 4 (Homo sapiens) (UniProt P54764); details: Compound concentration 1000.0 nM
[37] = target: Serine/threonine-protein kinase N2 (Homo sapiens) (UniProt Q16513); details: Compound concentration 1000.0 nM

Sequence of Serine/threonine-protein kinase N1 (Homo sapiens) (Q16512 2-942 limits assumed): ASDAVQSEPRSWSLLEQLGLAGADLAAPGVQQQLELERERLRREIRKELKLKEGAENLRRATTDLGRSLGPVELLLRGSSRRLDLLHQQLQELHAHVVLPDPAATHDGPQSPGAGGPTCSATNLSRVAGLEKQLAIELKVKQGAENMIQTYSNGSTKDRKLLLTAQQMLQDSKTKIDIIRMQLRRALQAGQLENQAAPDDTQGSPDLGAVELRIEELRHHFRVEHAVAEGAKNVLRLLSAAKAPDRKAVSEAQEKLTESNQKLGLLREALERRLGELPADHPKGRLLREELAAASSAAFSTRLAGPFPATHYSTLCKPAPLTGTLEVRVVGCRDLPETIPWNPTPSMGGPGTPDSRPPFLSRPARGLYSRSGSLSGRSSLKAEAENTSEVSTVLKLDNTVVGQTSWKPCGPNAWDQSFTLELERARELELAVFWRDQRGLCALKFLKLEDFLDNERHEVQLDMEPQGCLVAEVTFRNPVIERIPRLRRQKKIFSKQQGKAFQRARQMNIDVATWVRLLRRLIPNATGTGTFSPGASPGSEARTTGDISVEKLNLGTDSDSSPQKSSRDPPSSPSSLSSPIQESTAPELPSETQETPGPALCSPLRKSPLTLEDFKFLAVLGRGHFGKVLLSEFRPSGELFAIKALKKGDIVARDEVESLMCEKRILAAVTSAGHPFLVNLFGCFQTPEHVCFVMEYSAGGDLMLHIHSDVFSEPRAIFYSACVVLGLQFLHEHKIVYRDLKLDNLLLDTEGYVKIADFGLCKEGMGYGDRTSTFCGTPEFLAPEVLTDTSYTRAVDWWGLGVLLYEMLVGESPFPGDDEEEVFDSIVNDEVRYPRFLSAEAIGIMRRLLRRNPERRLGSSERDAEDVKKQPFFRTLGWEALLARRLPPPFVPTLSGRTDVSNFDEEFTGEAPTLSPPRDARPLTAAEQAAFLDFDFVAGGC
Sequence of Myosin light chain kinase 2, skeletal/cardiac muscle (Homo sapiens) (Q9H1R3 whole entry, canonical isoform): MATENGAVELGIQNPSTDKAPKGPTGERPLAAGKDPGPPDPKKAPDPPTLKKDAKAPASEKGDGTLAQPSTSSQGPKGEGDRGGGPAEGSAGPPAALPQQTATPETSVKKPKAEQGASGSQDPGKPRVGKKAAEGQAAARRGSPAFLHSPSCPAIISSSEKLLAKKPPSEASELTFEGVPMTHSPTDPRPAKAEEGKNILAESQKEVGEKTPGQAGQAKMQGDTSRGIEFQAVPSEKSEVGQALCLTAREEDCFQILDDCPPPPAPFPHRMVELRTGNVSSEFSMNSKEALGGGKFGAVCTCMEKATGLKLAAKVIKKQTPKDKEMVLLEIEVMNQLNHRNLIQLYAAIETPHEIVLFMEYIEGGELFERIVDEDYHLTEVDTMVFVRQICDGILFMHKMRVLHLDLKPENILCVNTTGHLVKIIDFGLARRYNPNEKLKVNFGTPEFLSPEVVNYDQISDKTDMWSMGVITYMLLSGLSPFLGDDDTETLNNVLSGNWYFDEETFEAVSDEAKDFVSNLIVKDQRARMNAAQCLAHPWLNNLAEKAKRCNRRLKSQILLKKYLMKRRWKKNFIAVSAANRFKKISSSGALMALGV
Sequence of Serine/threonine-protein kinase PAK 5 (Homo sapiens) (Q9P286 whole entry, looked up): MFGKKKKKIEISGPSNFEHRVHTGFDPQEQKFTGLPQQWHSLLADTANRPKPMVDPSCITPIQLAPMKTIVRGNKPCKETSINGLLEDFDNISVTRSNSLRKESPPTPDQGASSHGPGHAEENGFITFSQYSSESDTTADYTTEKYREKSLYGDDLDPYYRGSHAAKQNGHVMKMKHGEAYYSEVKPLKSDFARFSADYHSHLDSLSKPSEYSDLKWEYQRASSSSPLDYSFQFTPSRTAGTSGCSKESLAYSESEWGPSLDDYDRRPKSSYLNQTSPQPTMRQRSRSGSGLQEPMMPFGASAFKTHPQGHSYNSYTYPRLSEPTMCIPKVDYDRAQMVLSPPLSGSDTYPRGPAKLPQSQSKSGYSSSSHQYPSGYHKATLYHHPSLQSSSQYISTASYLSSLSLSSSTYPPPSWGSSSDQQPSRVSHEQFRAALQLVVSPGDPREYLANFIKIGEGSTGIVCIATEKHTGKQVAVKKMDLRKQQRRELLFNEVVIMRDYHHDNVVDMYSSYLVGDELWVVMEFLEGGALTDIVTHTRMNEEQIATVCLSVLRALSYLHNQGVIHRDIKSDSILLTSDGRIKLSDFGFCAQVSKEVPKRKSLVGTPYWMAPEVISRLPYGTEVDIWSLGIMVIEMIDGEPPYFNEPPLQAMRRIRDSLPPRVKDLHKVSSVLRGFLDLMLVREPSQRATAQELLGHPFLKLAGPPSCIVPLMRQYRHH
Sequence of Vascular endothelial growth factor receptor 3 (Homo sapiens) (P35916 whole entry): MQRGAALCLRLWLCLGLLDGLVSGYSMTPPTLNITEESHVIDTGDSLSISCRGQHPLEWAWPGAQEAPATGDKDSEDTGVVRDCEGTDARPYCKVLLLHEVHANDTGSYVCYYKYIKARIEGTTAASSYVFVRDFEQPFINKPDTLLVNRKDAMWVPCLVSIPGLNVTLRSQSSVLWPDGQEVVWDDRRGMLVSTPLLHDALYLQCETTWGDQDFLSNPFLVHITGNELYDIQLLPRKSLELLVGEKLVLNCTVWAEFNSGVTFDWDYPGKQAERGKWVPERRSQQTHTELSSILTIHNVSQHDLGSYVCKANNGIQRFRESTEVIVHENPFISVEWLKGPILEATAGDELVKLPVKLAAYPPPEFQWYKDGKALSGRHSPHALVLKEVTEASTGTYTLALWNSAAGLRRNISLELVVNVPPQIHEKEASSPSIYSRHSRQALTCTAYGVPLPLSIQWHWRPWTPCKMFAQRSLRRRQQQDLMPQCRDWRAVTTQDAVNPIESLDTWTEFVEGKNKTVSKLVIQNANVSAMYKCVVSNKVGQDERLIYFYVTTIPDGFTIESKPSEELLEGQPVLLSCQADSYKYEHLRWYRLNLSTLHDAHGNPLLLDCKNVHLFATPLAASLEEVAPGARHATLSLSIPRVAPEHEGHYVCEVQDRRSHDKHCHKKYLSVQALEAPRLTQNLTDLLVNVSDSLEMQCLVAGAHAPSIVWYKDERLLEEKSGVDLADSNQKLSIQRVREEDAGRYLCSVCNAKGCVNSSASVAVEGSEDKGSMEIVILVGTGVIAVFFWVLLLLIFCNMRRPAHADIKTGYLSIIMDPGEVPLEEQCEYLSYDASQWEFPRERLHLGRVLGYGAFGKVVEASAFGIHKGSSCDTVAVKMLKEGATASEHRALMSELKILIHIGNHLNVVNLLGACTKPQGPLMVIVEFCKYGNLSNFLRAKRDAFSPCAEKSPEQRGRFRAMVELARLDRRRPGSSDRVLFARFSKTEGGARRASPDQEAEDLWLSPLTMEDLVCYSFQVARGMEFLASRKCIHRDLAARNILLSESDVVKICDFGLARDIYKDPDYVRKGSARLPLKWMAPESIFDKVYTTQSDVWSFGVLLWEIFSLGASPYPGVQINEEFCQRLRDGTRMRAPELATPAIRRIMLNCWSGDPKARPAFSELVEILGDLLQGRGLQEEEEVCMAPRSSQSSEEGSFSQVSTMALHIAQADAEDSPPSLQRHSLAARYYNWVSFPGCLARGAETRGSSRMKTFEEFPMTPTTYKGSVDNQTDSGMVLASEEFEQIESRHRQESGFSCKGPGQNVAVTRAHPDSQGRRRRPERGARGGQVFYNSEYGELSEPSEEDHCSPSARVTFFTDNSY
Sequence of Serine/threonine-protein kinase TAO3 (Homo sapiens) (Q9H2K8 whole entry): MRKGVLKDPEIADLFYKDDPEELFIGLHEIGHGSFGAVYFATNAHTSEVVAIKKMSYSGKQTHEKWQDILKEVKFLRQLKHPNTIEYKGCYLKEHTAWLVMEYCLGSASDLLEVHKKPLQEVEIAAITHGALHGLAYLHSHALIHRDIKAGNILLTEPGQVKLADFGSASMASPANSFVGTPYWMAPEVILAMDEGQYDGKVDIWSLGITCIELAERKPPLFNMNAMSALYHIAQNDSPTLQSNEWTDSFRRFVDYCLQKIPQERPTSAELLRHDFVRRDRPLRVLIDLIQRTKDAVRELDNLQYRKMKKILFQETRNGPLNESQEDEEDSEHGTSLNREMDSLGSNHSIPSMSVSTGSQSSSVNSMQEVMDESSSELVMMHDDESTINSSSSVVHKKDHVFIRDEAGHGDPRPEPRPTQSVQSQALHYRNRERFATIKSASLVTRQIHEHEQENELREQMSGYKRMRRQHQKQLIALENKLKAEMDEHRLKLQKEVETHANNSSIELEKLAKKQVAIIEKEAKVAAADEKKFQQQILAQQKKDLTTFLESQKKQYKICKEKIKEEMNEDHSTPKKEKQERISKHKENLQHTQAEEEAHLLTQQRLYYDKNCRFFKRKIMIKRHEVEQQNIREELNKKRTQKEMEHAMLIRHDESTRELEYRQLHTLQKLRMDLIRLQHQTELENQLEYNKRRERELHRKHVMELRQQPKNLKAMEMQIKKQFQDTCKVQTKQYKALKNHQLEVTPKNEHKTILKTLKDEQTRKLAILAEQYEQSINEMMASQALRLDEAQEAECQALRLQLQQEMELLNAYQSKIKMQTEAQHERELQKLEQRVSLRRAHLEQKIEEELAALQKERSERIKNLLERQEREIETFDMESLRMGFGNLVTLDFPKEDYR
Sequence of Tyrosine-protein kinase FRK (Homo sapiens) (P42685 whole entry): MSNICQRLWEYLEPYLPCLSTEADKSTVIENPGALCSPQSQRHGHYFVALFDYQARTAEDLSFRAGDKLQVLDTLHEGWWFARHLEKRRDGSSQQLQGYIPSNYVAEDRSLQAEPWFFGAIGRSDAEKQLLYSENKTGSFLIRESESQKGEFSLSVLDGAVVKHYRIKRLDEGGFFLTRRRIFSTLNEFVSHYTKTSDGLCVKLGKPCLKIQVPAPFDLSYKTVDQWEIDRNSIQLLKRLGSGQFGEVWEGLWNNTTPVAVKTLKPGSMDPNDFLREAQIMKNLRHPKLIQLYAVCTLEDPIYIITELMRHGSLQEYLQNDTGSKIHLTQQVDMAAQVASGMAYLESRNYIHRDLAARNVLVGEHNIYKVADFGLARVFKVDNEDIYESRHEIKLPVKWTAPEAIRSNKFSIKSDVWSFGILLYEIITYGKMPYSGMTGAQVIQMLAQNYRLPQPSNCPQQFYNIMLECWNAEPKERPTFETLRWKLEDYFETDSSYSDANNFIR

Work on CCOCCn1cc(C(=O)Nc2ccc(-n3nc(-c4cccnc4)cc3C(F)(F)F)cn2)ccc1=O [BI 1935] yielded a residual activity [1] of 98%, a residual activity [2] of 93% and a residual activity [3] of 100%. The residual activity [4] was 100%, the residual activity [5] was 97% and the residual activity [6] was 100%. It also gave a residual activity [7] of 56%, a residual activity [8] of 100% and a residual activity [9] of 79%. The residual activity [10] was 89%, the residual activity [11] was 100% and the residual activity [12] was 97%. The inhibition [13] was -7.31%, the residual activity [14] was 88% and the residual activity [15] was 79%. It also gave a residual activity [16] of 100%, a residual activity [17] of 100% and a residual activity [18] of 76%. The residual activity [19] was 100%, the residual activity [20] was 97% and the residual activity [21] was 64%. It also gave a residual activity [22] of 66%, an inhibition [23] of 8.63% and a residual activity [24] of 100%. The residual activity [25] was 100%, the residual activity [26] was 93% and the residual activity [27] was 71%. The residual activity [28] was 100%, the residual activity [29] was 76% and the residual activity [30] was 96%. The residual activity [31] was 92%, the activity at 10 µM [32] was 27% and the residual activity [33] was 98%. It also gave a residual activity [34] of 100%, a residual activity [35] of 72% and a residual activity [36] of 91%. For the same compound, the residual activity [37] was 100%.
